Several values for one entry are separate records, joined by “and”; a condition that tells them apart may be missing. Equal values may be shown once.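 Each compound was tested at five concentrations against cells in 96-well plates for 48 hours. GI50 is the concentration that inhibits growth by half. TGI: total growth inhibition.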
Experiments:
Experiment in all cases: inhibition of tumour cell growth, NCI panel, 48 h
[1] = tested on: T-47D breast
[2] = tested on: A498 renal
[3] = tested on: U251 CNS
[4] = tested on: SN12C renal
[5] = tested on: CCRF-CEM leukemia
[6] = tested on: TK-10 renal
[7] = tested on: RPMI-8226 leukemia
[8] = tested on: SF-268 CNS
[9] = tested on: MDA-MB-231 breast
[10] = tested on: SR leukemia

For `CC(C)(C)c1n[nH]c(=S)n(/N=C/c2ccc(F)c(Oc3ccccc3)c2)c1=O`, the GI50 [1] was 55.7 µM, the TGI [1] was greater than 100 µM and the GI50 [2] was 27.8 µM. It also gave a TGI [2] of 69.7 µM, a GI50 [3] of 39.2 µM and a TGI [3] greater than 100 µM. It also gave a GI50 [4] of 48.5 µM, a TGI [4] greater than 100 µM and a GI50 [5] of 32.7 µM. It also gave a TGI [5] greater than 100 µM, a GI50 [6] of 22.2 µM and a TGI [6] of 91.4 µM. For the same molecule, the GI50 [7] was 32.5 µM, the TGI [7] was greater than 100 µM and the GI50 [8] was 35.9 µM. It also gave a TGI [8] greater than 100 µM, a GI50 [9] of 34.6 µM and a TGI [9] greater than 100 µM. For the same molecule, the GI50 [10] was greater than 100 µM and the TGI [10] was greater than 100 µM.

`O=C(C1CCCCC1)[C@@H]1[C@]2(C(=O)NC3CCCCC32)[C@@H]2CCCN2[C@@]12C(=O)NC1CCC(Cl)CC12` (some centres undefined) showed a GI50 [1] of 107 µM, a TGI [1] of 279 µM and a GI50 [2] of 130 µM. The TGI [2] was 265 µM, the GI50 [3] was 148 µM and the TGI [3] was 316 µM. It also gave a GI50 [4] of 61.2 µM, a TGI [4] of 197 µM and a GI50 [5] of 32.3 µM. It also gave a TGI [5] of 137 µM, a GI50 [6] of 266 µM and a TGI [6] of 448 µM. For the same molecule, the GI50 [7] was 32.6 µM, the TGI [7] was 103 µM and the GI50 [8] was 119 µM. It also gave a TGI [8] of 288 µM, a GI50 [9] of 70.3 µM and a TGI [9] of 224 µM. The GI50 [10] was 30.8 µM and the TGI [10] was 124 µM.

`O=C(/C(=C/c1ccccc1)CN1CCCCC1)c1ccccc1` gave a GI50 [1] of 0.801 µM, a TGI [1] of 3.2 µM and a GI50 [2] of 1.63 µM. It also gave a TGI [2] of 3.1 µM, a GI50 [3] of 1.35 µM and a TGI [3] of 3.22 µM. The GI50 [4] was 1.67 µM, the TGI [4] was 4.76 µM and the GI50 [5] was 0.346 µM. For the same molecule, the TGI [5] was greater than 45.3 µM, the GI50 [6] was 0.662 µM and the TGI [6] was 1.74 µM. The GI50 [7] was 0.8 µM, the TGI [7] was 5.13 µM and the GI50 [8] was 2.63 µM. For the same molecule, the TGI [8] was 15 µM, the GI50 [9] was 1.96 µM and the TGI [9] was 5.75 µM. The GI50 [10] was 0.271 µM and the TGI [10] was 5.78 µM.

`C[C@]12CCC3[C@@H](CC[C@@H]4c5nonc5CC[C@]34C)C1CCC(=O)N2` (some centres undefined) showed a GI50 [1] greater than 100 µM, a TGI [1] greater than 100 µM and a GI50 [2] greater than 88.8 µM. For the same molecule, the TGI [2] was greater than 100 µM, the TGI [3] was greater than 100 µM and the TGI [4] was greater than 100 µM. It also gave a TGI [5] greater than 100 µM, a TGI [6] greater than 100 µM and a TGI [7] greater than 100 µM. The TGI [8] was greater than 100 µM, the GI50 [9] was greater than 100 µM and the TGI [9] was greater than 100 µM. For the same molecule, the GI50 [10] was greater than 100 µM and the TGI [10] was greater than 100 µM.

`N#Cc1c(N/N=C/c2c(Cl)cccc2Cl)nc(N)nc1N1CCOCC1` showed a GI50 [1] of 48 µM, a TGI [1] greater than 100 µM and a GI50 [2] of 2.67 µM. It also gave a TGI [2] of 15.5 µM, a GI50 [3] of 15.6 µM and a TGI [3] greater than 100 µM. For the same molecule, the GI50 [4] was 16.8 µM, the TGI [4] was 85.7 µM and the GI50 [5] was 6.27 µM. It also gave a TGI [5] greater than 100 µM, a GI50 [6] of 20.8 µM and a TGI [6] of 92 µM. For the same molecule, the GI50 [7] was 3.86 µM, the TGI [7] was 26.2 µM and the GI50 [8] was 16.5 µM. For the same molecule, the TGI [8] was greater than 100 µM, the GI50 [9] was 11.7 µM and the TGI [9] was 56.1 µM. The GI50 [10] was 1.1 µM and the TGI [10] was 3.18 µM.

With `Cc1ccc(C(=O)Nc2cccc(C(F)(F)F)c2)cc1Nc1nc(-c2cccnc2)nc2c1cnn2C` the GI50 [1] was 3.44 µM and 1.86 µM, the TGI [1] was 16.3 µM and 8.72 µM and the GI50 [2] was 1.6 µM. For the same molecule, the TGI [2] was 5.01 µM, the GI50 [3] was 3.66 µM and 2.9 µM and the TGI [3] was 22 µM and > 10 µM. The GI50 [4] was 2.45 µM and 1.7 µM, the TGI [4] was 13.8 µM and > 10 µM and the GI50 [5] was 3.02 µM and 2.44 µM. The TGI [5] was greater than 100 µM, the GI50 [6] was 5.9 µM and 2.1 µM and the TGI [6] was 36.6 µM and 6.42 µM. The GI50 [7] was 1.63 µM, the TGI [7] was 6.04 µM and the GI50 [8] was 4.01 µM and 2.91 µM. The TGI [8] was 21.9 µM and > 10 µM, the GI50 [9] was 0.769 µM and 0.348 µM and the TGI [9] was 3.21 µM and 3.95 µM. For the same molecule, the GI50 [10] was 0.822 µM and the TGI [10] was 6.58 µM.

For `O=S(=O)(NCCNC/C=C/c1ccc(Br)cc1)c1cccc2cnccc12`, the GI50 [1] was 3.93 µM and 6.45 µM, the TGI [1] was 18.4 µM and 26 µM and the GI50 [2] was 8.86 µM and 11.8 µM. For the same molecule, the TGI [2] was 23.8 µM and 25.1 µM, the GI50 [3] was 9.55 µM and 13.8 µM and the TGI [3] was 23.9 µM and 26.7 µM. For the same molecule, the GI50 [4] was 7.25 µM and 14.6 µM, the TGI [4] was 21 µM and 31.4 µM and the GI50 [5] was 3.45 µM and 13.3 µM. The TGI [5] was 20.6 µM and 34.2 µM, the GI50 [6] was 5.92 µM and 10.3 µM and the TGI [6] was 19.6 µM and 23 µM. The GI50 [7] was 5.2 µM and 12 µM, the TGI [7] was 25.3 µM and 35.2 µM and the GI50 [8] was 8.14 µM and 11.1 µM. For the same molecule, the TGI [8] was 22.1 µM and 25.7 µM, the GI50 [9] was 8.1 µM and 14.2 µM and the TGI [9] was 21.7 µM and 29.7 µM. The GI50 [10] was 13.6 µM and the TGI [10] was > 40.9 µM and 34.6 µM.

`C[C@]12CC[C@H]3[C@@H](CCC4=CC(=O)CC[C@@H]43)[C@@H]1CC[C@@H]2OC(=O)CCc1ccccc1` gave a GI50 [1] of 21.8 µM, a TGI [1] of 66.6 µM and a GI50 [2] of 16.2 µM. The TGI [2] was 30.8 µM, the GI50 [3] was 15.1 µM and the TGI [3] was 28.4 µM. It also gave a GI50 [4] of 15.2 µM, a TGI [4] of 29.7 µM and a GI50 [5] of 17.2 µM. The TGI [5] was 43.5 µM, the GI50 [6] was 14.5 µM and the TGI [6] was 33.7 µM. The GI50 [7] was 14.6 µM, the TGI [7] was 47 µM and the GI50 [8] was 15.1 µM. It also gave a TGI [8] of 29.6 µM, a GI50 [9] of 18.9 µM and a TGI [9] of 42.2 µM. It also gave a GI50 [10] of 11.2 µM and a TGI [10] greater than 53.4 µM.

`COc1ccc(-c2n[nH]nc2-c2cc(OC)c3c(c2OC)OCO3)cc1` showed a GI50 [1] of 1.73 µM, a TGI [1] greater than 100 µM and a GI50 [2] of 0.312 µM. It also gave a TGI [2] of 6.38 µM, a GI50 [3] of 0.817 µM and a TGI [3] of 11 µM. The GI50 [4] was 4.86 µM, the TGI [4] was 83.7 µM and the GI50 [5] was 0.565 µM. The TGI [5] was greater than 100 µM, the GI50 [6] was 4.85 µM and the TGI [6] was 79.8 µM. For the same molecule, the GI50 [7] was 0.751 µM, the TGI [7] was 37.7 µM and the GI50 [8] was 2.98 µM. The TGI [8] was 54.3 µM, the GI50 [9] was 1.71 µM and the TGI [9] was 17.4 µM. The GI50 [10] was 0.299 µM and the TGI [10] was 22.6 µM.

`COc1ccc2cc(-c3ccoc(=O)c3-c3cc(OC)c(OC)c(OC)c3)ccc2c1` showed a GI50 [1] of 0.0772 µM, a TGI [1] greater than 100 µM and a GI50 [2] of 0.0723 µM. For the same molecule, the GI50 [3] was 0.112 µM, the TGI [3] was greater than 100 µM and the GI50 [4] was 0.639 µM. It also gave a TGI [4] greater than 100 µM, a GI50 [5] of 0.0842 µM and a TGI [5] greater than 100 µM. For the same molecule, the TGI [6] was greater than 100 µM, the GI50 [7] was 0.218 µM and the TGI [7] was 13.4 µM. It also gave a GI50 [8] of 0.626 µM, a TGI [8] greater than 100 µM and a GI50 [9] of 0.148 µM. The TGI [9] was greater than 100 µM and the GI50 [10] was 0.0301 µM.

With `CS(=O)(=O)c1ccc(C(=O)Nc2ccc(Cl)c(-c3ccccn3)c2)c(Cl)c1` the TGI [1] was > 100 µM and 12.1 µM, the TGI [2] was > 100 µM and 46.3 µM and the TGI [3] was > 100 µM and 15.8 µM. For the same molecule, the TGI [4] was > 100 µM and 51.3 µM, the TGI [5] was greater than 100 µM and the TGI [6] was > 100 µM and 34.7 µM. For the same molecule, the TGI [7] was > 100 µM and 10.6 µM, the TGI [8] was > 100 µM and 66.5 µM and the TGI [9] was > 96.2 µM and 15.7 µM. The TGI [10] was > 100 µM and 20.9 µM.

For `CN(C)c1ccc2c(c1)Sc1cc(N(C)C)ccc1N2C(=O)c1ccccc1`, the GI50 [1] was 35.2 µM, the TGI [1] was greater than 100 µM and the GI50 [2] was 32.3 µM. It also gave a TGI [2] greater than 100 µM, a GI50 [3] of 45.5 µM and a TGI [3] greater than 100 µM. For the same molecule, the GI50 [4] was greater than 100 µM, the TGI [4] was greater than 100 µM and the GI50 [5] was greater than 100 µM. It also gave a TGI [5] greater than 100 µM, a GI50 [7] of 76.1 µM and a TGI [7] greater than 100 µM. For the same molecule, the GI50 [8] was 30.3 µM, the TGI [8] was greater than 100 µM and the GI50 [9] was 64.2 µM. For the same molecule, the TGI [9] was greater than 100 µM, the GI50 [10] was 14.6 µM and the TGI [10] was greater than 100 µM.

With `CCN=C1C=CC(=C(c2ccc(N)cc2)c2ccc(N(CC)CC)c(C)c2)C=C1` the GI50 [1] was 0.222 µM, the TGI [1] was 1.34 µM and the GI50 [2] was 0.24 µM. It also gave a TGI [2] of 0.931 µM, a GI50 [3] of 0.124 µM and a TGI [3] of 1.59 µM. For the same molecule, the GI50 [4] was 0.201 µM, the TGI [4] was 1.15 µM and the GI50 [5] was 0.306 µM. It also gave a TGI [5] of 5.35 µM, a GI50 [6] of 0.396 µM and a TGI [6] of 10.7 µM. The GI50 [7] was 0.149 µM, the TGI [7] was 0.882 µM and the GI50 [8] was 0.407 µM. It also gave a TGI [8] of 2.09 µM, a GI50 [9] of 0.219 µM and a TGI [9] of 0.654 µM. It also gave a GI50 [10] of 0.313 µM and a TGI [10] of 1.24 µM.

Source: PubChem BioAssay (NCI)
